Reference: publication PMC6125541, “Bioequivalence of a Fixed-Dose Combination Tablet of the Complete Two-Drug Regimen of Dolutegravir and Rilpivirine for Treatment of HIV-1 Infection” (Antimicrobial Agents and Chemotherapy, 2018)

Legend:
[1] = Phase I open-label randomized 2-way crossover bioequivalence study, plasma pharmacokinetics of DTG and RPV; assay type: in vivo, healthy adults; settings: blind sample size reestimation after 57 participants
Description: This phase I study (ViiV-clinicalstudyregister.com identifier 201676) utilized an open-label, randomized, 2-way crossover design at a single center (Quintiles, Overland Park, KS, USA) (Fig. 2). The total duration of the study was approximately 8 weeks from the time of screening to the last follow-up visit. A crossover design was selected for this study to allow within-participant comparisons to be performed, thereby reducing the number of participants required for the study. Rilpivirine has a long half-life (∼50 h) ([15]); therefore, a 21-day washout between doses and a long pharmacokinetic sampling period were implemented to ensure that predose concentrations were negligible and that pharmacokinetic parameters could be well estimated.
The reference treatment consisted of DTG 50-mg tablets (Tivicay; ViiV Healthcare, Research Triangle Park, NC, USA), which were identical in composition to the commercial form except for a different film coat color, and commercial RPV 25-mg tablets (Edurant; Janssen Therapeutics, Titusville, NJ, USA). The test treatment was the FDC tablet with DTG at 50 mg and RPV at 25 mg (Juluca; ViiV Healthcare, Research Triangle Park, NC, USA).
Participants were randomly assigned 1:1 to 1 of 2 treatment sequences according to a randomization schedule generated before the start of the study. […]

[2] = cited from earlier work
[3] = design: method as in PMID 23979733; settings: DTG 50 mg once daily and RPV 25 mg once daily with a moderate-fat meal; cited from earlier work
[4] = design: method as in PMID 24798770; settings: cited from earlier work

| SMILES | Observed within-participant coefficient of variation (CVw) of Cmax [1] [%] | Half-life [2] [h] | Decrease in absorption after fasting versus a normal-fat meal ([2]; fasting vs normal-fat meal) | Change in AUC0–t or Cmax on coadministration [3] | Plasma exposure in the fed state [4] |
| --- | --- | --- | --- | --- | --- |
| Cc1cc(/C=C/C#N)cc(C)c1Nc1ccnc(Nc2ccc(C#N)cc2)n1 [RPV, rilpivirine] | 32.9 | ~50 | approximately 40% | no significant change | – |
| C[C@@H]1CCO[C@H]2Cn3cc(C(=O)NCc4ccc(F)cc4F)c(=O)c(O)c3C(=O)N12 [DTG, dolutegravir] | 14.8 | – | – | no significant change | increase |
